In ChEMBL document CHEMBL4665643 (Bioorg Med Chem Lett, 2019):

How the values were obtained:
[1] = target: Leucine-rich repeat serine/threonine-protein kinase 2 (Homo sapiens, UniProt Q5S007); assay: Inhibition of recombinant human GST-tagged LRRK2 (970 to 2527 residues) expressed in baculovirus expression system using LRRKtide as substrate incubated for 60 mins by Adapta assay
[2] = target: High affinity nerve growth factor receptor (Homo sapiens) (UniProt P04629); assay: Inhibition of recombinant human His-tagged TRKA (441 to 796 residues) expressed in baculovirus expression system using Tyr 01 as substrate at 0.1 uM incubated for 60 mins by Z'-Lyte assay relative to control
Chain of High affinity nerve growth factor receptor (Homo sapiens) (P04629 33-796 limits assumed): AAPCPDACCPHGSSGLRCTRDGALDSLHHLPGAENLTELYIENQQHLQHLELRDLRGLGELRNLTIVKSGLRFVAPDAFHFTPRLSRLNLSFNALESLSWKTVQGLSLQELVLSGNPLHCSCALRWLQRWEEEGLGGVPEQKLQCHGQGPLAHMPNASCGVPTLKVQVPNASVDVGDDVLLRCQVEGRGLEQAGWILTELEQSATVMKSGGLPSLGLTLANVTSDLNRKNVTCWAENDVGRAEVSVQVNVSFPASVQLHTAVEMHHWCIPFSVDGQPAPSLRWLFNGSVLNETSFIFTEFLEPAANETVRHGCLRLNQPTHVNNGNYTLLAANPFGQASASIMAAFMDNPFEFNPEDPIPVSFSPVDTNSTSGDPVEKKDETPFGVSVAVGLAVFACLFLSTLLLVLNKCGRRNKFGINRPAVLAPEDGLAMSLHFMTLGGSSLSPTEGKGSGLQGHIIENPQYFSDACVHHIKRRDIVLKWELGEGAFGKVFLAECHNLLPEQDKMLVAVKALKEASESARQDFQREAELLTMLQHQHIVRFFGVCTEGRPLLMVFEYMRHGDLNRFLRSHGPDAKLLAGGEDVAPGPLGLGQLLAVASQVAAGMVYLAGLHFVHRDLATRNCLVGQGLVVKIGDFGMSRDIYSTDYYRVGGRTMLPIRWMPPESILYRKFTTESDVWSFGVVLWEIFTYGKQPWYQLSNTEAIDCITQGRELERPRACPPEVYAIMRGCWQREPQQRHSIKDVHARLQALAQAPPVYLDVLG

[3] = target: T1, Inhibitor of nuclear factor kappa-B kinase subunit epsilon (Homo sapiens) (UniProt Q14164); assay: Inhibition of recombinant human GST-tagged full length IKKepsilon expressed in baculovirus expression system using Ser/Thr 11 as substrate at 0.1 uM incubated for 60 mins by Z'-lyte assay relative to control
T1 sequence (whole entry): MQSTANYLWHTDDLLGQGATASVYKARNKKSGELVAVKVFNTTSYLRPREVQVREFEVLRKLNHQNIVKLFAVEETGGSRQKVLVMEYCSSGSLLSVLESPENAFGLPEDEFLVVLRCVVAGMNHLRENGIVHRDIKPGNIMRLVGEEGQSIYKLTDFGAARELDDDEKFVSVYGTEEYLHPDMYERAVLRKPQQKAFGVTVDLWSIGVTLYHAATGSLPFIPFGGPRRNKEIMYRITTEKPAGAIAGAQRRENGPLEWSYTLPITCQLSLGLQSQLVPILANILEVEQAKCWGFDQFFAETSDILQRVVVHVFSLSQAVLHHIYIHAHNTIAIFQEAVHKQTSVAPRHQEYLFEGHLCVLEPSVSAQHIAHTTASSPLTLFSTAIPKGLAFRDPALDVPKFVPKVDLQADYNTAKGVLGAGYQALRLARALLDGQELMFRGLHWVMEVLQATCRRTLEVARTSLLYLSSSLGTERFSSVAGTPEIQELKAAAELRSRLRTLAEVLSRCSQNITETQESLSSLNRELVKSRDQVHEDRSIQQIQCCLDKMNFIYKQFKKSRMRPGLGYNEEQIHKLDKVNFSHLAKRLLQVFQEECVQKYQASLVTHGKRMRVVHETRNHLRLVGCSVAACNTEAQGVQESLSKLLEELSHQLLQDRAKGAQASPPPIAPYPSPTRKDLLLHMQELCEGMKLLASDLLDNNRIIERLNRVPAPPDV

[4] = target: Serine/threonine-protein kinase Sgk1 (Homo sapiens) (UniProt O00141); assay: Inhibition of recombinant human GST-tagged […] SGK1 (60 to 431 residues) expressed in baculovirus expression system using Ser/Thr 06 as substrate at 0.1 uM incubated for 60 mins by Z'-Lyte assay relative to control
Chain of Serine/threonine-protein kinase Sgk1 (Homo sapiens) (O00141 whole entry, the tested form may be a part): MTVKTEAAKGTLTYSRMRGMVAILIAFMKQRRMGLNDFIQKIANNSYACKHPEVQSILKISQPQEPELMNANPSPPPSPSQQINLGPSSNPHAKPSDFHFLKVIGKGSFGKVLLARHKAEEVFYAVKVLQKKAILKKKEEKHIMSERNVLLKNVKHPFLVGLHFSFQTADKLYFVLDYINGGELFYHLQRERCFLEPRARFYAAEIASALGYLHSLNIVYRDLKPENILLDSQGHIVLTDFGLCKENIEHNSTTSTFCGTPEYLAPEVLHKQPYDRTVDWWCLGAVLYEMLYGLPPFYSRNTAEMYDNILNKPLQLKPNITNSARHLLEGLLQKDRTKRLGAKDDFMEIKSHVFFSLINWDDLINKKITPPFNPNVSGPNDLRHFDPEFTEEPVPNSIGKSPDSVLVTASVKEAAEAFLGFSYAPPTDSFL

[5] = target: Inhibitor of nuclear factor kappa-B kinase subunit alpha (Homo sapiens) (UniProt O15111); assay: Inhibition of recombinant human His-tagged full length IKKalpha expressed in baculovirus expression system at 0.1 uM incubated for 60 mins by Adapta assay relative to control
[6] = target: Glycogen synthase kinase-3 beta (Homo sapiens) (UniProt P49841); assay: Inhibition of recombinant human N-terminal GST-tagged full length GSK3beta expressed in baculovirus expression system using Ser/Thr 09 as substrate at 0.1 uM incubated for 60 mins by Z'-Lyte assay relative to control
Chain of Glycogen synthase kinase-3 beta (Homo sapiens) (P49841 whole entry, looked up): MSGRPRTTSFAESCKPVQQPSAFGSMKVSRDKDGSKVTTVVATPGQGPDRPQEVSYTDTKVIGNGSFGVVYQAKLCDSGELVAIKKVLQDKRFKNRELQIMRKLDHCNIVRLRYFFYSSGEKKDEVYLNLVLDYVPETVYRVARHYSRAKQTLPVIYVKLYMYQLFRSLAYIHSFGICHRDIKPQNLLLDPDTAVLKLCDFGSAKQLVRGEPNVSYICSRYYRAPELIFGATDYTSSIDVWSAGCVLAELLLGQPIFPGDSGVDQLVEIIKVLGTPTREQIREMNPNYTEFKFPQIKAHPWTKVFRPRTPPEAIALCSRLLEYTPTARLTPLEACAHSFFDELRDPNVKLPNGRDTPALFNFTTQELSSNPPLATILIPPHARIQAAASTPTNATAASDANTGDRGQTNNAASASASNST

[7] = target: Tyrosine-protein kinase receptor UFO (Homo sapiens) (UniProt P30530); assay: Inhibition of recombinant human GST-tagged full length AXL expressed in insect expression system using Tyr 06 as substrate at 0.1 uM incubated for 60 mins by Z'-Lyte assay relative to control
Chain of Tyrosine-protein kinase receptor UFO (Homo sapiens) (P30530 whole entry, the tested form may be a part): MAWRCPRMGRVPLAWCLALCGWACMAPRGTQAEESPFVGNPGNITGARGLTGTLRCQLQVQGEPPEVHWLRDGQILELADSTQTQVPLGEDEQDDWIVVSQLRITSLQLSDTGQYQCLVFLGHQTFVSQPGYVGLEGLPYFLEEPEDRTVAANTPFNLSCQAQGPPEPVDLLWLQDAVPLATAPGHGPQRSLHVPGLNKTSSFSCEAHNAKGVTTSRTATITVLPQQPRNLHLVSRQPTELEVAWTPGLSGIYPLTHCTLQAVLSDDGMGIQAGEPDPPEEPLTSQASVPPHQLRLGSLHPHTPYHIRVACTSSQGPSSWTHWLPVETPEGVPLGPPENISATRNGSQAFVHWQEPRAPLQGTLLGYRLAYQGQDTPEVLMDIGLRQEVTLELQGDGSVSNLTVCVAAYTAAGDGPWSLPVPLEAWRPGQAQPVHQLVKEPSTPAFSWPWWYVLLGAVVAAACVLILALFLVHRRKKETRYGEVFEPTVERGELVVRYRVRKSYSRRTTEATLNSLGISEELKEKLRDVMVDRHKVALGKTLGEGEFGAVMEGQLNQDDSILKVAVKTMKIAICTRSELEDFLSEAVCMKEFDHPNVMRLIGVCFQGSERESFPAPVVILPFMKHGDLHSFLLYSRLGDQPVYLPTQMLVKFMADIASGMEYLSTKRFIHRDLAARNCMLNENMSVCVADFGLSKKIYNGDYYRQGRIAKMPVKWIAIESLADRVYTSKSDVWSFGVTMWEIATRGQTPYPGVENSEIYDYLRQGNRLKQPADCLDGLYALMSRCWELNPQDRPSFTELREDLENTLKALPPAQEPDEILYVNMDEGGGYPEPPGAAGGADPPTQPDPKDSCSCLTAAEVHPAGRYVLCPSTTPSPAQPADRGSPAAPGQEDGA

[8] = target: T2, Tyrosine-protein kinase JAK2 (Homo sapiens, UniProt O60674); assay: Inhibition of recombinant human GST-tagged JAK2 (809 to 1153 residues) expressed in baculovirus expression system using Tyr 06 as substrate at 0.1 uM incubated for 60 mins by Z'-lyte assay relative to control
T2 sequence (O60674 whole entry, the tested form may be a part): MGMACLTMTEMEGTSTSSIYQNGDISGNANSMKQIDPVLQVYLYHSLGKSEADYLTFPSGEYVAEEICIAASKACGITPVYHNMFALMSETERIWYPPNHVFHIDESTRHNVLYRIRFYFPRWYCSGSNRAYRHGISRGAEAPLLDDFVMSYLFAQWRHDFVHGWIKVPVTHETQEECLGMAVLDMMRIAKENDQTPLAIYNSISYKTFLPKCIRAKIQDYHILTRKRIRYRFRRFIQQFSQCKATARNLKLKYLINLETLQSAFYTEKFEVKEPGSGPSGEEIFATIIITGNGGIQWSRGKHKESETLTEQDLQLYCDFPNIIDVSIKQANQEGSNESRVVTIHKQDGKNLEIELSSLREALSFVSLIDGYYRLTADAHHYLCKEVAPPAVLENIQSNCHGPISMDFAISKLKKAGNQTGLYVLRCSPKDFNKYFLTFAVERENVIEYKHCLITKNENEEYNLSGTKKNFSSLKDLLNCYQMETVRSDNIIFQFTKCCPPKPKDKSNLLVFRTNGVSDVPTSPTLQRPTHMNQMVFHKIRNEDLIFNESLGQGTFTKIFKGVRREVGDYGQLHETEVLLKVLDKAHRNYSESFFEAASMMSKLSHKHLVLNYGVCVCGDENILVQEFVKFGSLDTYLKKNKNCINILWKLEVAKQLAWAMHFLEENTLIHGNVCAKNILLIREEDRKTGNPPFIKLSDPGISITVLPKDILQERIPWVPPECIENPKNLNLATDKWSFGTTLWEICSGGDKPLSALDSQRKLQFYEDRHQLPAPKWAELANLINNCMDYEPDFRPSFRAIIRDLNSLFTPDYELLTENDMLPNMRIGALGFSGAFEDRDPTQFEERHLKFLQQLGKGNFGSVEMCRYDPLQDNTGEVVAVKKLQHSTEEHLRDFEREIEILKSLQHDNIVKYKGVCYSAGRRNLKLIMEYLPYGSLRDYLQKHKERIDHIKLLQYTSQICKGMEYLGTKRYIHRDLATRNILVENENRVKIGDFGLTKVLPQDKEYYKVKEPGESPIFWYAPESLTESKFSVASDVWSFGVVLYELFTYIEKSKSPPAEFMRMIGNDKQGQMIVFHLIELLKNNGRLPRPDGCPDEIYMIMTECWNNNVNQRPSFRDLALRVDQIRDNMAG

[9] = target: Angiopoietin-1 receptor (Homo sapiens) (UniProt Q02763); assay: Inhibition of recombinant human GST-tagged TIE2 (817 to 1101 residues) expressed in baculovirus expression system using […] as substrate at 0.1 uM incubated for 60 mins by Z'-Lyte assay relative to control
Chain of Angiopoietin-1 receptor (Homo sapiens) (Q02763 whole entry, the tested form may be a part): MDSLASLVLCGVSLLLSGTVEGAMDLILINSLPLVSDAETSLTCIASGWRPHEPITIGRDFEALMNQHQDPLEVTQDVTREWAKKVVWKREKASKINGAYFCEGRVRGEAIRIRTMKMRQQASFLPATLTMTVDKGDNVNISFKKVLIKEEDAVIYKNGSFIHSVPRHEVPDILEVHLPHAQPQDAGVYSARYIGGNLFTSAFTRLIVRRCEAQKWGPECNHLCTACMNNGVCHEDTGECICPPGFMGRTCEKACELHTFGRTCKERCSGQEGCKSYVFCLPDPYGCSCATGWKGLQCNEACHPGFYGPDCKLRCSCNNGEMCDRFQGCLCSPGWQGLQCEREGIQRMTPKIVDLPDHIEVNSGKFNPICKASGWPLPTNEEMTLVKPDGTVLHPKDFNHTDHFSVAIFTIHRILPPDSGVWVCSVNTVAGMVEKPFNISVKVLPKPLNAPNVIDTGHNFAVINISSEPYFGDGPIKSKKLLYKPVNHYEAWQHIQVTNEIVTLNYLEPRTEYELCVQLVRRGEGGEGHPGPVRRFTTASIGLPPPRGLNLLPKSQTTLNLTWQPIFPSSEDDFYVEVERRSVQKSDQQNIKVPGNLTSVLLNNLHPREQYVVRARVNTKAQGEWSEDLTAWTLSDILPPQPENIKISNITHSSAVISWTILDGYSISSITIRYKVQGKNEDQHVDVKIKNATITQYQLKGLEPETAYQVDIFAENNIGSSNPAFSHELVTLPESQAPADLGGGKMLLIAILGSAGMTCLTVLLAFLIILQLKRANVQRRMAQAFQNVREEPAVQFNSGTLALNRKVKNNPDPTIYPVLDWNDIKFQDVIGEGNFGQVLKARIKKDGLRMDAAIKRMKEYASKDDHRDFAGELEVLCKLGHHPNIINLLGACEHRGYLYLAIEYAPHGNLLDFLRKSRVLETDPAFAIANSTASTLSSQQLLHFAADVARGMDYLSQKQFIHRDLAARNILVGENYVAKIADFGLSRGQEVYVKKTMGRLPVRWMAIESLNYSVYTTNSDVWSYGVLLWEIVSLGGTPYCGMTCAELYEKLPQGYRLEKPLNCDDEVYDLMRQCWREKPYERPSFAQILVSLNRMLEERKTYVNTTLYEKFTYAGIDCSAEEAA

[10] = target: Tyrosine-protein kinase JAK1 (Homo sapiens, UniProt P23458); assay: biochemical
Description: Inhibition of recombinant human JAK1 (854 to 1154 residues) expressed in insect cells using Y1-B as substrate incubated for 30 mins by microfluidic mobility shift assay

[11] = target: T2, Tyrosine-protein kinase JAK2
Description: Inhibition of recombinant human JAK2 (812 to 1132 residues) expressed in insect cells using Y1-B as substrate incubated for 30 mins by microfluidic mobility shift assay

Compound	IC50 [1] [nM]	inhibition [2] [%]	inhibition [3] [%]	inhibition [4] [%]	inhibition [5] [%]	inhibition [6] [%]	inhibition [7] [%]	inhibition [8] [%]	inhibition [9] [%]	Ki [10] [nM]	Ki [11] [nM]
O=C(Nc1c[nH]nc1-c1cc2ccccc2cc1OC(F)F)c1cnn2cccnc12	180	23	3	-4	6	7	0	97			
O=C(Nc1c[nH]nc1-c1cc(Cl)ccc1OC(F)F)c1cnn2cccnc12	18	59	8			7			12	0.21	0.071
Cn1cc(NC(=O)c2cnn3cccnc23)c(-c2cc(Cl)ccc2OC(F)F)n1		44	5	7	-3	-3	5	98	3	0.21	0.088
